A value given as a limit tells only on which side of the number the result lay.

One experiment has as its target T1, Protein farnesyltransferase (Homo sapiens, UniProt P49354+P49356). Kind of experiment: Inhibition of FTase-catalyzed incorporation of [3H]- FPP radioligand into recombinant Ha-Ras by 50% at an enzyme concentration of 1 nM. It is filed as protein-complex assay.
The IC50 is the point on the concentration scale where inhibition reaches its midpoint. Consider `CCC(C)[C@@H](CN(CC(=O)N[C@@H](CCSC)C(=O)O)Cc1cccc2ccccc12)NC(=O)CSCc1ccc(S(C)(=O)=O)cc1` (some centres not stated), for which the IC50 amounted to 16 nM. As for `CCC(C)[C@@H](CN(CC(=O)N[C@@H](CCSC)C(=O)O)Cc1ccccc1)NC(=O)CSc1nc[nH]n1` (some centres not stated), the IC50 was more than 10000 nM. The same measure, in the same setting: the same measure for `CCC(C)[C@@H](CN(CC(=O)N[C@@H](CCSC)C(=O)O)Cc1cccc2ccccc12)NC(=O)CN(Cc1ccccc1)C(=O)OC(C)(C)C` (some centres not stated): 260 nM. As to `CCC(C)[C@@H](CN(CC(=O)N[C@@H](CCSC)C(=O)O)Cc1cccc2ccccc12)NCc1cnc[nH]1` (some centres not stated), the IC50 is 31 nM. `CCC(C)[C@@H](CN(CC(=O)N[C@@H](CCSC)C(=O)O)Cc1cccc2ccccc12)NC(=O)CSCc1ccccc1` (some centres not stated): the IC50 came out at 36 nM. The same measure, in the same setting: the same measure for `CCC(C)[C@@H](CN(CC(=O)N[C@@H](CCSC)C(=O)O)Cc1cccc2ccccc12)NC(=O)CCCCc1ccccc1` (some centres not stated): 230 nM; for `CCC(C)[C@@H](CN(CC(=O)N[C@@H](CCSC)C(=O)O)Cc1cccc2ccccc12)NC(=O)CSCc1ccc([N+](=O)[O-])cc1` (some centres not stated): 6.2 nM; for `CCC(C)[C@@H](CN(CC(=O)N[C@@H](CCSC)C(=O)O)Cc1cccc2ccccc12)NC(=O)CSCc1ccncc1` (some centres not stated): 230 nM.

As to `CCC(C)[C@@H](CN(CC(=O)N[C@@H](CCSC)C(=O)O)Cc1cccc2ccccc12)NC(=O)CSc1ccncc1` (some centres not stated), the IC50 was determined as 17 nM. The same measure, in the same setting: next, `CCC(C)[C@@H](CN(CC(=O)N[C@@H](CCSC)C(=O)O)Cc1cccc2ccccc12)NC(=O)CSCCc1ccccc1` (some centres not stated): 120 nM; `CCC(C)[C@@H](CN(CC(=O)N[C@@H](CCSC)C(=O)O)Cc1cccc2ccccc12)NC(=O)CSCc1cccc([N+](=O)[O-])c1` (some centres not stated): 23 nM; `CCC(C)[C@@H](CN(CC(=O)N[C@@H](CCSC)C(=O)O)Cc1cccc2ccccc12)NC(=O)CSCc1ccc(-c2ccccc2)cc1` (some centres not stated): 29 nM. Still for that read-out and setting: the same measure for `CCC(C)[C@@H](CN(CC(=O)N[C@@H](CCSC)C(=O)O)Cc1cccc2ccccc12)NC(=O)CSCc1ccc(C#N)cc1` (some centres not stated): 5.4 nM. With `CCC(C)[C@@H](CN(CC(=O)N[C@@H](CCSC)C(=O)O)Cc1cccc2ccccc12)NC(=O)COCc1ccccc1` (some centres not stated), the concentration for half-maximal inhibition (IC50) was 230 nM.

Take `CCC(C)[C@@H](CN(CC(=O)N[C@@H](CCSC)C(=O)O)Cc1cccc2ccccc12)NC(=O)CN(Cc1ccccc1)C(C)=O` (some centres not stated): the IC50 came out at 70 nM. The same measure, in the same setting: next, `CCC(C)[C@@H](CN(CC(=O)N[C@@H](CCSC)C(=O)O)Cc1cccc2ccccc12)NC(=O)CSCc1ccc(C)cc1` (some centres not stated): 14 nM; `CCC(C)[C@@H](CN(CC(=O)N[C@@H](CCSC)C(=O)O)Cc1cccc2ccccc12)NC(=O)CNCc1ccccc1` (some centres not stated): 190 nM.

For the molecule `CCC(C)[C@@H](CN(CC(=O)N[C@@H](CCSC)C(=O)O)Cc1cccc2ccccc12)NC(=O)CS(=O)(=O)Cc1ccccc1` (some centres not stated), the IC50 amounted to 310 nM.

Take `CCC(C)[C@@H](CN(CC(=O)N[C@@H](CCSC)C(=O)O)Cc1cccc2ccccc12)NC(=O)C[S+]([O-])Cc1ccccc1` (some centres not stated): the IC50 was 160 nM. The same measure, in the same setting: the same measure for `CCC(C)[C@@H](CN(CC(=O)N[C@@H](CCSC)C(=O)O)Cc1ccccc1)NC(=O)CSc1nnc(N)s1` (some centres not stated): more than 10000 nM.

As for `CCC(C)[C@@H](CN(CC(=O)N[C@@H](CCSC)C(=O)O)Cc1cccc2ccccc12)NC(=O)CSCc1ccccc1[N+](=O)[O-]` (some centres not stated), the IC50 was found to be 86 nM. As to `CCC(C)[C@@H](CN(CC(=O)N[C@@H](CCSC)C(=O)O)Cc1cccc2ccccc12)NC(=O)CSCc1ccc(OC)cc1` (some centres not stated), the IC50 stood at 17 nM. For the molecule `CCC(C)[C@@H](CN(CC(=O)N[C@@H](CCSC)C(=O)O)Cc1ccccc1)NC(=O)CSc1nc2ccccc2[nH]1` (some centres not stated), the IC50 was more than 10000 nM. The same measure, in the same setting: next, `CCC(C)[C@@H](CN(CC(=O)N[C@@H](CCSC)C(=O)O)Cc1cccc2ccccc12)NC(=O)CSCc1ccc(C(F)(F)F)cc1` (some centres not stated): 37 nM.

For `CCC(C)[C@@H](CN(CC(=O)N[C@@H](CCSC)C(=O)O)Cc1cccc2ccccc12)NC(=O)CCCc1ccc([N+](=O)[O-])cc1` (some centres not stated), the IC50 stood at 19 nM. As to `CCC(C)[C@@H](CN(CC(=O)N[C@@H](CCSC)C(=O)O)Cc1cccc2ccccc12)NC(=O)CSc1ccccc1` (some centres not stated), the IC50 was determined as 51 nM.

For another experiment, the target named is T1, Protein farnesyltransferase. Kind of experiment: Inhibition of [3H]- FPP incorporation into recombinant Ha-Ras by farnesyl transferase at 10 pM. It is filed as protein-complex assay.
Consider `CCC(C)[C@@H](CN(CC(=O)N[C@@H](CCSC)C(=O)O)Cc1cccc2ccccc12)NC[C@@H](N)CS` (some centres not stated), for which the IC50 came out at 0.123 nM.

Values taken from ChEMBL document CHEMBL1130684, “Potent, non-thiol inhibitors of farnesyltransferase” (Bioorg Med Chem Lett, 1998).
